System: Trypanosoma brucei brucei
Test: microbe, parasite or virus in culture
Format: functional, organism-based, STIB 795
Conditions: Trypanosoma brucei, STIB 795
Description: DNDI: Inhibition of Human African Trypanosomiasis (HAT), STIB 795, in vitro

Structure (SMILES) | IC50
COc1ccccc1NC(=S)N/N=C/c1cccn1Cc1ccccc1F | > 10.4 µM
Oc1ccc(/C=N/N2CCN(c3ccccc3)CC2)cc1O | > 10.4 µM
CN(C)CC/C=C(\c1ccccc1)c1cccc(C(F)(F)F)c1 | > 10.4 µM
Cc1ccc2[nH]c3c(c2c1)CCCC3NCCCOc1ccc(F)cc1 (centres undefined) | > 10.4 µM
Cc1ccc(N2CC(C(=O)NCc3nnnn3-c3ccccc3)CC2=O)cc1C (centres undefined) | > 10.4 µM
N#Cc1c(Cl)ncc2c1Nc1ccccc1C2Sc1ccccc1 (centres undefined) | > 10.4 µM
Oc1c(C(Nc2ccccn2)c2ccc(OC(F)F)cc2)ccc2cccnc12 (centres undefined) | > 10.4 µM
CCn1c(C)cc(=S)c2ccccc21 | > 10.4 µM
CC(C)(C)C(=O)NN=c1c2ccccc2[nH]c2ccccc12 | > 10.4 µM
Cc1ccc(O)c(C(=O)CC(=O)c2ccccc2C)c1 | > 10.4 µM
CC(C)(C)c1cc(C(c2ccncc2)N2CCCC2)cc(C(C)(C)C)c1O (centres undefined) | > 10.4 µM
Cn1c(SC2=CS(=O)(=O)c3ccccc32)nc2ccccc21 | > 10.4 µM
CN(C)c1ccc(C(Nc2nccs2)c2ccc3cccnc3c2O)cc1 (centres undefined) | > 10.4 µM
O=C1C(=O)/C(=C/c2ccccc2)CCC/C1=C/c1ccccc1 | > 10.4 µM
CCC(=C\C1=[N+](C)c2ccccc2C1(C)C)/C=C1/N(C)c2ccccc2C1(C)C | > 10.4 µM
O=C(/C=C/n1c(=O)oc2ccccc21)c1ccccc1 | > 10.4 µM
O=C(N/N=C\c1c(O)ccc2ccccc12)c1ccc(Cn2cccn2)o1 | > 10.4 µM
CCOC(=O)C1=C(C)NC(SCC(=O)c2ccccc2)=C(C#N)C1CC(C)C (centres undefined) | > 10.4 µM
O=c1c2ccccc2nc(SCc2cccnc2)n1Cc1ccco1 | > 10.4 µM
CCN(CC)S(=O)(=O)c1cccc(N/N=C2\C=CC(=O)c3cccnc32)c1 | > 10.4 µM
O=C(Nc1ccnc(Cl)c1)NC12CC3CC(CC(C3)C1)C2 | > 10.4 µM
CC(C)COCc1ccc(O)c2ncccc12 | > 10.4 µM
CC(=O)c1ccc2c(c1)[nH]c1cc(C(C)=O)ccc12 | > 10.4 µM
NC(=S)N/N=C/c1sc(=O)[nH]c1Cl | > 10.4 µM
CCC(=O)c1coc2ccc(O)cc12 | > 10.4 µM
CCOC(=O)N1CCN(c2ccc(/C=C(\C#N)c3nc4ccccc4[nH]3)o2)CC1 | > 10.4 µM
CC(C)(C)c1ccc(C(=O)NNC(=O)c2cnccn2)cc1 | > 10.4 µM
CCC(=O)Nc1nc2ccccc2n1Cc1ccccc1C | > 10.4 µM
Cc1nnc(Sc2nc(Nc3ccccc3)nc(Nc3ccccc3)n2)s1 | > 10.4 µM

More lines, now with the values ahead:

IC50 | Structure (SMILES)
> 10.4 µM | CC(/C=N/NC(=O)c1cc(-c2ccc(OC(C)C)cc2)n[nH]1)=C\c1ccccc1
> 10.4 µM | CCOC(=O)c1cnc2c(CC)cccc2c1NC1CC(C)(C)NC(C)(C)C1
> 10.4 µM | CN(C)CCCC1Sc2ccccc2Sc2ccccc21 (centres undefined)
> 10.4 µM | O=C1C=C(N2CCCCC2c2cccnc2)C2(CCCCC2)O1 (centres undefined)
> 10.4 µM | O=C1C(=O)c2c(C(=O)c3cccs3)coc2-c2ccccc21
> 10.4 µM | Oc1ccc2ccccc2c1/N=N/c1nccs1
> 10.4 µM | c1ccc(-c2nnc(-c3ccccn3)nc2-c2ccccc2)cc1
> 10.4 µM | CCOC(=O)Cc1csc(NC(=S)NC(=O)C2CCCCC2)n1
> 10.4 µM | CC(C)NC(=O)Nc1ccc(-c2noc(-c3ccc(Br)o3)n2)cc1
> 10.4 µM | COc1ccc(C(CC(=O)c2ccco2)SCc2ccco2)cc1OC (centres undefined)
> 10.4 µM | CCCCC(O)(CCCC)C(=O)NNc1ccc(C)cc1
> 10.4 µM | Nc1ccccc1SC(CC(=O)c1ccc(F)cc1)c1ccccc1 (centres undefined)
> 10.4 µM | Cc1cc(C(=O)N/N=C/c2cc(/N=N/c3ccccc3)ccc2O)[nH]n1
> 10.4 µM | COc1ccc2nc(C)cc(Nc3ccc(N4CCOCC4)cc3)c2c1
> 10.4 µM | O=C1C(=O)N(Cc2cc(F)cc(F)c2)c2ccc(Br)cc21
> 10.4 µM | Cc1nc(NC(C)(C)C)c2sc3nc4c(cc3c2n1)COC(C)(C)C4
> 10.4 µM | O=c1oc2ccccc2n1Cc1c(F)cccc1Cl
> 10.4 µM | Clc1ccc(-c2nnc(NCCN3CCCC3)c3ccccc23)cc1
> 10.4 µM | C=CCn1c(=O)c(=O)n(CCC(=O)NCc2cccnc2)c2ccccc21
> 10.4 µM | CCS(=O)(=O)c1cccc(-c2ccc3nc(N)nc(N)c3c2C)c1

Source: ChEMBL document CHEMBL2094269, “WEHI/Eskitis Trypanosoma b. brucei screening data”
